The text below walks through data of ChEMBL document CHEMBL1140639, “Leuconoxine, kopsinitarine, kopsijasmine, and kopsinone derivatives from Kopsia” (J Nat Prod, 2007).

Assay type in all cases: functional, cell-based
Experiment [1] in a line: Cytotoxicity against human multidrug-resistant KB/VJ300 cells in presence of 0.12 uM vincristine.
The test system of a further experiment is KB. The experiment is described as follows: Cytotoxicity against human KB cells.
A short description of experiment [2]: Cytotoxicity against human KB/VJ300 cells.

For the compound `COC(=O)C1=C[C@@]23CCCN4CC[C@@]5(c6ccccc6N[C@]15CC2)[C@@H]43` [KOPSIJASMININE], the IC50 in experiment [1] stood at 38700 nM.

For the compound `CC[C@]1(O)C[C@H]2CN(CCc3c([nH]c4ccccc34)[C@@](C(=O)OC)(c3cc4c(cc3OC)N(C=O)[C@H]3[C@@](O)(C(=O)OC)[C@H](OC(C)=O)[C@]5(CC)C=CCN6CC[C@]43[C@@H]65)C2)C1` [VINCRISTINE], the IC50 came to 16.7 nM in the experiment with KB and 1340 nM in experiment [2].

A word on the IC50: it is the point on the concentration scale where inhibition reaches its midpoint.
